How the values were obtained:
Assay in all cases: Greenhouse herbicidal activity assay, post-emergence
Type in all cases: in vivo
Cyperus iria = conditions: Post-emergence test, rate 150 g a.i./hm^2, grade by fresh weight inhibition rate; for pest or weed control at 150 g/ha: Cyperus iria, read-out: Control efficacy grade, Cyperus iria
Summary of the method: (§1)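 Foliar spray at 3-6 leaves; pot-grown in nutrient soil in growth chamber; air-dried post-spray. Read-out at 14-21 d: fresh weight inhibition, graded A (≥80% to 100%) down to E (<20%); NT = not tested.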

Digitaria sanguinalis = conditions: Post-emergence test, rate 150 g a.i./hm^2, grade by fresh weight inhibition rate; for pest or weed control at 150 g/ha: Digitaria sanguinalis, read-out: Control efficacy grade, Digitaria sanguinalis
Summary of the method: as §1

Echinochloa crusgalli = conditions: Post-emergence test, rate 150 g a.i./hm^2, grade by fresh weight inhibition rate; for pest or weed control at 150 g/ha: Echinochloa crus-galli, read-out: Control efficacy grade, Echinochloa crusgalli
Summary of the method: as §1

Eclipta prostrata = conditions: Post-emergence test, rate 150 g a.i./hm^2, grade by fresh weight inhibition rate; for pest or weed control at 150 g/ha: Eclipta prostrata, read-out: Control efficacy grade, Eclipta prostrata
Summary of the method: as §1

Leptochloa chinensis = conditions: Post-emergence test, rate 150 g a.i./hm^2, grade by fresh weight inhibition rate; for pest or weed control at 150 g/ha: Dinebra chinensis, read-out: Control efficacy grade, Leptochloa chinensis
Summary of the method: as §1

CCCSc1c(S(C)(=O)=O)ccc(C(=O)Nc2nnnn2C)c1Cl [Compound 1-1, 2-chloro-N-(1-methyl-1H-tetrazol-5-yl)-4-(methylsulfonyl)-3-(propylthio)benzamide]
pest or weed control at 150 g/ha (Cyperus iria): 80 to 100%
pest or weed control at 150 g/ha (Digitaria sanguinalis): 80 to 100%
pest or weed control at 150 g/ha (Echinochloa crusgalli): 80 to 100%
pest or weed control at 150 g/ha (Eclipta prostrata): 80 to 100%
pest or weed control at 150 g/ha (Leptochloa chinensis): 80 to 100%

Cc1nnc(NC(=O)c2ccc(S(C)(=O)=O)c([S+]([O-])CCC(C)C)c2Cl)o1 (racemic) [Compound 3-53]
Control efficacy grade, Cyperus iria (Cyperus iria): A (Fresh weight inhibition rate≥80% to 100%)
Control efficacy grade, Digitaria sanguinalis (Digitaria sanguinalis): A (Fresh weight inhibition rate≥80% to 100%)
Control efficacy grade, Echinochloa crusgalli (Echinochloa crusgalli): B (Fresh weight inhibition rate≥260% to <80%)
Control efficacy grade, Eclipta prostrata (Eclipta prostrata): A (Fresh weight inhibition rate≥80% to 100%)
Control efficacy grade, Leptochloa chinensis (Leptochloa chinensis): A (Fresh weight inhibition rate≥80% to 100%)

CC(C)[S+]([O-])c1c(S(C)(=O)=O)ccc(C(=O)Nc2nnnn2C)c1Cl (single isomer, unassigned) [Compound 1-8]
Control efficacy grade, Cyperus iria (Cyperus iria): A (Fresh weight inhibition rate≥80% to 100%)
Control efficacy grade, Digitaria sanguinalis (Digitaria sanguinalis): A (Fresh weight inhibition rate≥80% to 100%)
Control efficacy grade, Echinochloa crusgalli (Echinochloa crusgalli): A (Fresh weight inhibition rate≥80% to 100%)
Control efficacy grade, Eclipta prostrata (Eclipta prostrata): A (Fresh weight inhibition rate≥80% to 100%)
Control efficacy grade, Leptochloa chinensis (Leptochloa chinensis): A (Fresh weight inhibition rate≥80% to 100%)

Cc1nnc(NC(=O)c2ccc(S(C)(=O)=O)c(SC3CCC3)c2Cl)o1 [Compound 3-82]
Control efficacy grade, Cyperus iria (Cyperus iria): A (Fresh weight inhibition rate≥80% to 100%)
Control efficacy grade, Digitaria sanguinalis (Digitaria sanguinalis): A (Fresh weight inhibition rate≥80% to 100%)
Control efficacy grade, Echinochloa crusgalli (Echinochloa crusgalli): A (Fresh weight inhibition rate≥80% to 100%)
Control efficacy grade, Eclipta prostrata (Eclipta prostrata): A (Fresh weight inhibition rate≥80% to 100%)
Control efficacy grade, Leptochloa chinensis (Leptochloa chinensis): A (Fresh weight inhibition rate≥80% to 100%)

CCC[S+]([O-])c1c(S(C)(=O)=O)ccc(C(=O)Nc2nnnn2C)c1Cl (single isomer, unassigned) [Compound 1-4]
Control efficacy grade, Cyperus iria (Cyperus iria): A (Fresh weight inhibition rate≥80% to 100%)
Control efficacy grade, Digitaria sanguinalis (Digitaria sanguinalis): A (Fresh weight inhibition rate≥80% to 100%)
Control efficacy grade, Echinochloa crusgalli (Echinochloa crusgalli): A (Fresh weight inhibition rate≥80% to 100%)
Control efficacy grade, Eclipta prostrata (Eclipta prostrata): A (Fresh weight inhibition rate≥80% to 100%)
Control efficacy grade, Leptochloa chinensis (Leptochloa chinensis): A (Fresh weight inhibition rate≥80% to 100%)

CCC[S+]([O-])c1c(S(C)(=O)=O)ccc(C(=O)Nc2nnnn2C)c1Cl (single isomer, unassigned) [Compound 1-3]
Control efficacy grade, Cyperus iria (Cyperus iria): A (Fresh weight inhibition rate≥80% to 100%)
Control efficacy grade, Digitaria sanguinalis (Digitaria sanguinalis): A (Fresh weight inhibition rate≥80% to 100%)
Control efficacy grade, Echinochloa crusgalli (Echinochloa crusgalli): A (Fresh weight inhibition rate≥80% to 100%)
Control efficacy grade, Eclipta prostrata (Eclipta prostrata): A (Fresh weight inhibition rate≥80% to 100%)
Control efficacy grade, Leptochloa chinensis (Leptochloa chinensis): A (Fresh weight inhibition rate≥80% to 100%)

Cn1nnnc1NC(=O)c1ccc(S(C)(=O)=O)c([S+]([O-])C2CCC2)c1Cl (racemic) [Compound 1-38]
Control efficacy grade, Cyperus iria (Cyperus iria): A (Fresh weight inhibition rate≥80% to 100%)
Control efficacy grade, Digitaria sanguinalis (Digitaria sanguinalis): A (Fresh weight inhibition rate≥80% to 100%)
Control efficacy grade, Echinochloa crusgalli (Echinochloa crusgalli): A (Fresh weight inhibition rate≥80% to 100%)
Control efficacy grade, Eclipta prostrata (Eclipta prostrata): A (Fresh weight inhibition rate≥80% to 100%)
Control efficacy grade, Leptochloa chinensis (Leptochloa chinensis): B (Fresh weight inhibition rate≥260% to <80%)

CCCSc1c(S(C)(=O)=O)ccc(C(=O)Nc2nnc(C)o2)c1Cl [Compound 3-1]
Control efficacy grade, Cyperus iria (Cyperus iria): A (Fresh weight inhibition rate≥80% to 100%)
Control efficacy grade, Digitaria sanguinalis (Digitaria sanguinalis): A (Fresh weight inhibition rate≥80% to 100%)
Control efficacy grade, Echinochloa crusgalli (Echinochloa crusgalli): A (Fresh weight inhibition rate≥80% to 100%)
Control efficacy grade, Eclipta prostrata (Eclipta prostrata): A (Fresh weight inhibition rate≥80% to 100%)
Control efficacy grade, Leptochloa chinensis (Leptochloa chinensis): A (Fresh weight inhibition rate≥80% to 100%)

CC(C)[S+]([O-])c1c(S(C)(=O)=O)ccc(C(=O)Nc2nnc(C3CC3)o2)c1Cl (racemic) [Compound 3-621, 2-chloro-N-(5-cyclopropyl-1,3,4-oxadiazol-2-yl)-3-(isopropylsulfinyl)-4-(methylsulfonyl)benzamide]
pest or weed control at 150 g/ha (Cyperus iria): 80 to 100%
pest or weed control at 150 g/ha (Digitaria sanguinalis): 80 to 100%
pest or weed control at 150 g/ha (Echinochloa crusgalli): 80 to 100%
pest or weed control at 150 g/ha (Eclipta prostrata): 80 to 100%
pest or weed control at 150 g/ha (Leptochloa chinensis): 80 to 100%

CS(=O)(=O)c1ccc(C(=O)Nc2nnc(C3CC3)o2)c(Cl)c1[S+]([O-])C1CCCCC1 (racemic) [Compound 3-667]
Control efficacy grade, Cyperus iria (Cyperus iria): A (Fresh weight inhibition rate≥80% to 100%)
Control efficacy grade, Digitaria sanguinalis (Digitaria sanguinalis): A (Fresh weight inhibition rate≥80% to 100%)
Control efficacy grade, Echinochloa crusgalli (Echinochloa crusgalli): C (Fresh weight inhibition rate≥40% to <60%)
Control efficacy grade, Eclipta prostrata (Eclipta prostrata): A (Fresh weight inhibition rate≥80% to 100%)
Control efficacy grade, Leptochloa chinensis (Leptochloa chinensis): A (Fresh weight inhibition rate≥80% to 100%)

CC(C)Sc1c(S(C)(=O)=O)ccc(C(=O)Nc2ncnn2C)c1Cl [Compound 2-6, 2-chloro-3-(isopropylthio)-N-(1-methyl-1H-1,2,4-triazol-5-yl)-4-(methylsulfonyl)benzamide]
pest or weed control at 150 g/ha (Cyperus iria): 80 to 100%
pest or weed control at 150 g/ha (Digitaria sanguinalis): 80 to 260%
pest or weed control at 150 g/ha (Echinochloa crusgalli): 80 to 100%
pest or weed control at 150 g/ha (Eclipta prostrata): 80 to 100%
pest or weed control at 150 g/ha (Leptochloa chinensis): 80 to 100%

Cn1nnnc1NC(=O)c1ccc(S(C)(=O)=O)c([S+]([O-])CC(F)F)c1Cl (racemic) [Compound 1-58]
Control efficacy grade, Cyperus iria (Cyperus iria): B (Fresh weight inhibition rate≥260% to <80%)
Control efficacy grade, Digitaria sanguinalis (Digitaria sanguinalis): A (Fresh weight inhibition rate≥80% to 100%)
Control efficacy grade, Echinochloa crusgalli (Echinochloa crusgalli): A (Fresh weight inhibition rate≥80% to 100%)
Control efficacy grade, Eclipta prostrata (Eclipta prostrata): A (Fresh weight inhibition rate≥80% to 100%)
Control efficacy grade, Leptochloa chinensis (Leptochloa chinensis): A (Fresh weight inhibition rate≥80% to 100%)

COCSc1c(S(C)(=O)=O)ccc(C(=O)Nc2nnc(C)o2)c1Cl [Compound 3-262]
Control efficacy grade, Cyperus iria (Cyperus iria): A (Fresh weight inhibition rate≥80% to 100%)
Control efficacy grade, Digitaria sanguinalis (Digitaria sanguinalis): A (Fresh weight inhibition rate≥80% to 100%)
Control efficacy grade, Echinochloa crusgalli (Echinochloa crusgalli): A (Fresh weight inhibition rate≥80% to 100%)
Control efficacy grade, Eclipta prostrata (Eclipta prostrata): A (Fresh weight inhibition rate≥80% to 100%)
Control efficacy grade, Leptochloa chinensis (Leptochloa chinensis): A (Fresh weight inhibition rate≥80% to 100%)

CCc1nnc(NC(=O)c2ccc(S(C)(=O)=O)c([S+]([O-])C3CC3)c2Cl)o1 (racemic) [Compound 3-420]
Control efficacy grade, Cyperus iria (Cyperus iria): A (Fresh weight inhibition rate≥80% to 100%)
Control efficacy grade, Digitaria sanguinalis (Digitaria sanguinalis): A (Fresh weight inhibition rate≥80% to 100%)
Control efficacy grade, Echinochloa crusgalli (Echinochloa crusgalli): A (Fresh weight inhibition rate≥80% to 100%)
Control efficacy grade, Eclipta prostrata (Eclipta prostrata): A (Fresh weight inhibition rate≥80% to 100%)
Control efficacy grade, Leptochloa chinensis (Leptochloa chinensis): A (Fresh weight inhibition rate≥80% to 100%)

Cc1nnc(NC(=O)c2ccc(S(C)(=O)=O)c(SCC#N)c2Cl)o1 [Compound 3-192]
Control efficacy grade, Cyperus iria (Cyperus iria): A (Fresh weight inhibition rate≥80% to 100%)
Control efficacy grade, Digitaria sanguinalis (Digitaria sanguinalis): A (Fresh weight inhibition rate≥80% to 100%)
Control efficacy grade, Echinochloa crusgalli (Echinochloa crusgalli): A (Fresh weight inhibition rate≥80% to 100%)
Control efficacy grade, Eclipta prostrata (Eclipta prostrata): A (Fresh weight inhibition rate≥80% to 100%)
Control efficacy grade, Leptochloa chinensis (Leptochloa chinensis): A (Fresh weight inhibition rate≥80% to 100%)

From patent publication US20250223268A1, “4-Methylsulfonylbenzamide Compound, Preparation Method, Herbicidal Composition And Use” (Jiangsu Flag Chemical Industry Co., Ltd., priority 2022, published 2025)
